Measured values published in the NIST ThermoML archive (doi:10.1016/j.jct.2013.08.034).
± gives the expanded uncertainty stated by the source.

What was measured:
[1] = Liquid; for electrical conductivity / viscosity: 101 kPa; for electrical conductivity: Conductivity Meter Jenco 3107; for viscosity: Cone and plate viscometry; for mass density: 101.33 kPa, Vibrating tube method
[2] = xn = mol fraction of the nth substance listed; conditions: 101 kPa, Liquid, x1 = 1; for electrical conductivity: Conductivity Meter Jenco 3107; for viscosity: Cone and plate viscometry

SMILES	viscosity ([1]; 293.15 K) [mPa·s]	mass density ([1]; 293.15 K) [kg/m3]	viscosity ([1]; 298.15 K) [mPa·s]	mass density ([1]; 298.15 K) [kg/m3]	viscosity ([1]; 303.15 K) [mPa·s]	mass density ([1]; 303.15 K) [kg/m3]	viscosity ([1]; 308.15 K) [mPa·s]	mass density ([1]; 308.15 K) [kg/m3]	viscosity ([1]; 313.15 K) [mPa·s]	mass density ([1]; 313.15 K) [kg/m3]	viscosity ([1]; 318.15 K) [mPa·s]	mass density ([1]; 318.15 K) [kg/m3]	viscosity ([1]; 323.15 K) [mPa·s]	mass density ([1]; 323.15 K) [kg/m3]	viscosity ([1]; 328.15 K) [mPa·s]	viscosity ([1]; 333.15 K) [mPa·s]	also measured
CCCC[n+]1ccn(C)c1.O=S(=O)([N-]S(=O)(=O)C(F)(F)F)C(F)(F)F	62.08 ± 6.2	1439.27 ± 0.62	50.05 ± 5	1434.3 ± 0.61	41.24 ± 4.2	1429.4 ± 0.61	33.65 ± 3.4	1424.57 ± 0.6	28.28 ± 2.8	1419.61 ± 0.6	23.91 ± 2.4	1414.67 ± 0.6	20.64 ± 2.1	1409.65 ± 0.59	17.9 ± 1.8	15.51 ± 1.6	electrical conductivity ([1]; 293.15 K): 0.337 ± 0.01 S/m; electrical conductivity ([1]; 298.15 K): 0.4 ± 0.012 S/m; electrical conductivity ([1]; 303.15 K): 0.472 ± 0.014 S/m; electrical conductivity ([1]; 308.15 K): 0.552 ± 0.017 S/m; electrical conductivity ([1]; 313.15 K): 0.64 ± 0.019 S/m; electrical conductivity ([1]; 318.15 K): 0.733 ± 0.022 S/m; electrical conductivity ([1]; 323.15 K): 0.835 ± 0.025 S/m; electrical conductivity ([1]; 328.15 K): 0.944 ± 0.028 S/m
CCCC[n+]1ccn(C)c1.O=S(=O)([N-]S(=O)(=O)C(F)(F)F)C(F)(F)F + CC1COC(=O)O1																	electrical conductivity ([2]; 293.15 K): 0.337 ± 0.01 S/m; viscosity ([2]; 293.15 K): 62.08 ± 6.2 mPa·s; electrical conductivity ([2]; 298.15 K): 0.4 ± 0.012 S/m; viscosity ([2]; 298.15 K): 50.05 ± 5 mPa·s; electrical conductivity ([2]; 303.15 K): 0.472 ± 0.014 S/m; viscosity ([2]; 303.15 K): 41.24 ± 4.2 mPa·s; electrical conductivity ([2]; 308.15 K): 0.552 ± 0.017 S/m; viscosity ([2]; 308.15 K): 33.65 ± 3.4 mPa·s; electrical conductivity ([2]; 313.15 K): 0.64 ± 0.019 S/m; viscosity ([2]; 313.15 K): 28.28 ± 2.8 mPa·s; electrical conductivity ([2]; 318.15 K): 0.733 ± 0.022 S/m; viscosity ([2]; 318.15 K): 23.91 ± 2.4 mPa·s; electrical conductivity ([2]; 323.15 K): 0.835 ± 0.025 S/m; viscosity ([2]; 323.15 K): 20.64 ± 2.1 mPa·s; electrical conductivity ([2]; 328.15 K): 0.944 ± 0.028 S/m; viscosity ([2]; 328.15 K): 17.9 ± 1.8 mPa·s; viscosity ([2]; 333.15 K): 15.51 ± 1.6 mPa·s
CC1COC(=O)O1 (configuration not stated) [4-methyl-1,3-dioxolan-2-one]	2.86 ± 0.29	1204.81 ± 0.41	2.65 ± 0.27	1199.02 ± 0.4	2.44 ± 0.24	1194 ± 0.4	2.23 ± 0.22	1188.57 ± 0.39	2.05 ± 0.21	1183.11 ± 0.39	1.9 ± 0.19	1177.55 ± 0.38	1.78 ± 0.18	1171.96 ± 0.38	1.63 ± 0.16	1.54 ± 0.15	
